Literature values, collected in PMC6095608 (PLoS ONE, 2018).

Tested on: rats
Conditions: co-administered trimethoprim; cited from earlier work

COc1cc(Cc2cnc(N)nc2N)cc(OC)c1OC [trimethoprim]
Effect on lamivudine accumulation in the renal cortex: did not impair
